Consider one compound from patent US11320428B2, “Probe for dual-mode bio-imaging” (THE HONG KONG UNIVERSITY OF SCIENCE AND TECHNOLOGY, priority 2017, dated 2022).

Data set [1] deals with HeLa cells. As to the kind of experiment: Cell viability / cytotoxicity evaluated by MTT assay. Type of data set: cell-based. As for the experimental part:
For cell culturing, HeLa cells were cultured in the MEM containing 10% FBS and antibiotics (100 units/mL penicillin and 100 µg/mL streptomycin) in a humidity incubator with an atmosphere of 5% CO2 at 37° C. and subcultured every 2-3 days.
For cell viability evaluated by MTT assay, cells were seeded in 96-well plates at a density of 10000 cells per well. After 24 h incubation, medium in each well was replaced by 100 μL fresh medium containing different concentrations of AIE-SRS-Mito. After 24 hours of treatment, into each well, 10 μL MTT solution (5 mg/mL in PBS) was added. After 4 hours of incubation, the MTT-containing solution was gently removed and replaced with 100 μL of DMSO. After agitation, the absorption of each well at 490 nm was recorded via a plate reader (Perkin-Elmer Victor3™). Each of the experiments were performed for 6 wells parallel. The background of the blank was subtracted and the cell viability of the control group was set to unity.
Cell cytotoxicity was evaluated by MTT assay (FIG. 4E). HeLa cells were incubated with different concentrations of AIE-SRS-Mito for 24 hours. For example, HeLa cells were incubated with different concentrations of AIE-SRS-Mito for 20 or 40 min and then the medium was replaced with fresh medium, followed by further incubation for 24 hours.

In data set [2] the test system is HeLa cells. Kind of data set: SRS imaging in live cells. The data set is classed as cell-based. The settings on record: 5 μM for 60 min, staining much shorter than EdU. As for the experimental part: SRS imaging was conducted with live HeLa cells to validate a newly built SRS imaging system. The DNA of HeLa cells were pre-labeled with EdU by incubation with 100 μM of EdU in culture medium for 22 hours to ensure sufficient cell-uptake. FIGS. 7A-7D show the distributions of protein, lipid, cytochrome c and DNA in HeLa cells at 2950 cm^−1, 2845 cm^−1, 752 cm^−1, and 2125 cm^−1, respectively.
Due to the high Raman signal (RIE=6) and mitochondria targeting of AIE-SRS-Mito, AIE-SRS-Mito can serve as a mitochondrial probe for Raman microscopy. In previous reports, cytochrome c, an endogenous protein abundant in the mitochondria membrane, was used for visualization of the mitochondria. However, compared to the unclear and low-contrast image of mitochondria by cytochrome c (752 cm^−1, FIG. 7C), the SRS image of mitochondria in HeLa cells were obtained at 2223 cm^−1 with much more clear reticulum-like structures after incubated with 5 μM of AIE-SRS-Mito for 60 min (FIGS. 8A and 8C). Meanwhile, the nuclei of the Hela cells were prelabeled with EdU and imaged at 2125 cm^−1 (FIGS. 8B and 8D).

Data set [3] relates to HeLa cells. As to the kind of experiment: FL-SRS imaging: intracellular dye concentration from SRS intensity (ISRS=0.1567c). Conditions: for percentage of high concentration region (>0.5 mM) / ultimate high concentration within the cells: 20 μM; for ultimate high concentration within the cells: covering >99.5% cell area. The data set is classed as cell-based. The text has this:
To eliminate the influence of light reflection and scattering on the baseline, SRS intensity ION at 2223 cm^−1 (resonance-on) and IOFF at 2160 cm^−1 (resonance-off) was used to calculate the SRS signal intensity ISRS=ION−IOFF. After subtracting the intrinsic ISRS=0.042 V in pure DMSO (background), a linear relationship between SRS intensity ISRS and the dye concentration c was obtained as ISRS=0.1567c with R^2=0.99944 in the plot shown in FIG. 5B. The analytical detection limit and quantification limit were calculated to be 8.5 μM and 28.4 μM, respectively, indicating the high sensitivity of the SRS system. Further, the SRS spectra of AIE-SRS-Mito were collected at different concentrations in DMSO and no obvious shifts in the peak position was found, indicating the inertness of Raman signal to the concentration change. Due to the inert response of SRS signal to the change of environment, the linear plot of ISRS=0.1567c can act further as a calibration for the intracellular dye concentration by keeping the same signal collecting condition.
At first, as shown in FIGS. 9A-9D, images of HeLa cells were collected by TPEF and SRS signals, respectively, and the merged image indicated a perfect co-localization of the intracellular distribution of the fluorescence and SRS signals, confirming the dual-modality of the probe. […] Due to the inertness of SRS signal and the linear relationship (ISRS=0.1567 c), the distribution of the dye concentration inside a single cell was further analyzed.
To examine the influence of intracellular concentration of AIE-SRS-Mito on the cells, attempts were made to increase the amounts of dye in the cells by increasing the incubation time. As shown in FIGS. 11A-11F, with the extension of incubation time, both the TPEF and SRS intensity were increased with a reduced mitochondrial selectivity. […] This can be attributed to the fact that the high concentration of cationic dyes in the mitochondria matrix will cause depolarization and increase the osmotic stress of the mitochondria, consequently leading to cell death as indicated by the results of the MTT assay (FIG. 4E). Similar results were found when increasing the dye concentration (FIGS. 12A-12F).
To further study acceptable intracellular concentrations of the dye molecules in a cell, the distribution of the dye concentration for cells was plotted. The percentages of high concentration region (>0.5 mM) were calculated to be 16.7%, 23.9% and 30.0% for the cells incubated with 20 μM of AIE-SRS-Mito for 30, 60 and 105 min, respectively. The ultimate high concentration within the cells was estimated to be 1.5, 2.0, 3.0 mM, respectively, covering >99.5% cell area. […] Such a high concentration is enough to cause the quenching of Rhodamine 123 in cells.

Data set [4] concerns HeLa cells. Kind of data set: Fluorescence cell imaging and co-localization with Mitotracker Red FM. The data set is classed as cell-based. The settings on record: 20 min. As to the method: For cell imaging, HeLa cells were grown overnight on a 35-mm petri dish with a cover slip. The cover slip was mounted to an iron slide with observation window. The staining solution was prepared by adding the dye stock solution (10 mM in DMSO) in to 2 mL of cell medium. Before imaging, the cells were stained with 2 mL of dye solution for a certain time and then imaged under an FL microscope (BX41 upright Microscope) using different combinations of excitation and emission filters for each dye.
To verify the mitochondrial specificity of AIE-SRS-Mito, cellular imaging was first conducted by incubating HeLa cells with 5 μM AIE-SRS-Mito for 20 min.
A co-localization experiment was then conducted using AIE-SRS-Mito and a commercial mitochondrial probe, Mitotacker Red (MTR) FM. The excitation wavelength was 330-385 nm for AIE-SRS-Mito and 540-580 nm for MTR. As shown in FIGS. 4A-4D, AIE-SRS-Mito stained the linear reticulum-like structures in cells with high contrast.

A short description of data set [5]: Behaviour in DMSO-water mixtures (solubility in water). Conditions: aggregation/precipitation above 70 vol % water, 10 μM. The data set is classed as physicochemical. The text has this:
Then AIE-SRS-Mito was studied in DMSO-water mixtures with different water fractions. As shown in FIGS. 1C-1D, the emission peak intensity was decreased with the increase of water fraction from 0 to 70 vol % due the quenching effect of the highly polar water. […] This is a typical AIE phenomenon, as the free intramolecular rotations of the excited molecules were restricted upon aggregation, thus blocking the non-radiative decays and favoring the radiative decay. Only a slight red-shift in peak wavelength was observed and this should be attributed to the increased solution polarity by increasing water fraction. The AIE feature and TICT effect upon excitation were further verified by the theoretical calculations (FIGS. 2A-2C).

SMILES strings stand for the structures. pIC50: −log10 of the molar value.

Consider `CC[n+]1ccc(-c2ccc(/C(C#N)=C/c3ccc(C#Cc4ccccc4)cc3)cc2)cc1` [AIE-SRS-Mito], for which, in the data set on HeLa cells [1] (Homo sapiens, incubation for 24 hours, concentrations 0 to 40 μM, FIG. 4E, read-out: half maximal inhibitory concentration (IC50) of cell viability), the pIC50 is around 5.15. For the same compound, the cell viability entry in the data set on HeLa cells [1] (treatment with <40 μM for <40 min, then fresh medium and further 24 hours) is on record as “over 70%”. In addition, the cell permeability entry with HeLa cells [2] was “good cell permeability”; in the data set with HeLa cells [4] (HeLa cells, 5 μM, fluorescence imaging, compared to synthetic precursors) it was “good cell permeability”. Besides, the “dye concentration in mitochondria matrix tolerated by cells” value with HeLa cells [3] (HeLa cells, with moderate cell viability) is reported as “up to 3.0 mM”. In addition, the “percentage of high concentration region (>0.5 mM)” value with HeLa cells [3] (HeLa, 30 min) turned out to be 16.7%; with HeLa cells [3] (HeLa, 60 min) it was 23.9%; with HeLa cells [3] (HeLa, 105 min) it was 30.0%. The “ultimate high concentration within the cells” value in the data set with HeLa cells [3] (HeLa, 30 min) stood at 1.5 mM; in the data set with HeLa cells [3] (HeLa, 60 min) it was 2.0 mM; in the data set with HeLa cells [3] (HeLa, 105 min), 3.0 mM. In addition, the “local concentration relative to incubation concentration” value with HeLa cells [3] (HeLa, incubation concentration 20 μM, 30 min) amounted to 75 folds. Also, the “local concentration within a cell” value with HeLa cells [3] (single HeLa cell, 20 μM for 30 min, FIG. 10D) is “up to 1.5 mM”. For the same compound, in the data set on HeLa cells [4] (HeLa cells co-stained, 5 μM probe and 100 nM MTR), the “mitochondrial selectivity (overlap with Mitotracker Red FM fluorescence)” value is on record as “good mitochondrial selectivity”. Moreover, the solubility in water entry in data set [5] was “poor solubility”.
